What was measured:
[1] = test system: S. aureus (ATCC 25904) biofilm; assay: Biofilm formation on polystyrene (crystal violet); assay type: cell-based, Staphylococcus aureus; settings: 20 hours
Description: (§1) S. aureus (ATCC 25904) was grown overnight in TSB medium, before being diluted 100 fold in fresh TSB, and incubated aerobically at 37° C. until bacteria culture reached an OD600 of 0.6 (corresponding to approximately 1-3×10^8 CFU/ml). Bacteria cultures were then diluted to 1×10^4 CFU/ml in fresh TSB. 800 μl aliquots of diluted bacteria suspensions were distributed in each well of a 24-well plate. Bacteria were allowed to adhere for 4 hours under static conditions at 37° C. After removing media, wells were rinsed 2 times with PBS to eliminate planktonic bacteria and re-filled with TSB supplemented with 0.5% glucose
Triafluocyl or DMSO as vehicle was then added at desired concentration and plates were incubated at 37° C. for 20 hours. After incubation, wells were washed and stained with 0.5% (w/v) crystal violet for 30 minutes, washed again and the dye was solubilized by adding 20% acetic acid (v/v in water) before reading absorbance at 595 nm.
S. aureus biofilms were formed on polystyrene surface in the presence of increasing concentrations of Triafluocyl or DMSO as vehicle. In FIG. 2, Biofilm mass is presented as percentage of values obtained in the presence of DMSO (*P<0.05; **P<0.01; ***P<0.001, Triafluocyl versus DMSO, n=4).
as §1, with “Staphyloccocus” for “S.”, “or Staphyloccocus epidermidis (ATCC 35984) were” for “was”, “TSB. Aliquots of” for “TSB.”, “μl” for “μl aliquots of”, “removing the” for “removing”, “glucose containing Fluometacyl at desired concentration or DMSO alone (Ctrl). […] The dye was solubilized by adding 20% acetic acid (v/v in water) before reading absorbance at 595 nm. […]” for “glucose”

[2] = test system: Escherichia coli (ATCC 8739); assay: MIC determination with or without C12(ω7)Kβ12 (OAK); assay type: cell-based; settings: for MIC: Escherichia coli, ATCC8739, in presence of 5 μg/ml OAK; for inhibition of Escherichia coli growth: taken alone at a concentration of 10 μg/ml
Description: (§2) Determination of Minimal Inhibitory Concentration (MIC) and Minimal Bactericidal Concentration (MBC) of Triafluocyl (purchased from Cayman Chemical, Item No. 15425) in presence of C12(ω7)Kβ12 (purchased from biomers.net, Germany) against Escherichia coli (ATCC 8739). The C12(ω7)Kβ12 was synthesized by solid-phase method as described by I. Radzishevsky in Antimicrobial Agents and Chemotherapy, May 2007 (1753-1759) (https://aac.asm.org/content/51/5/1753).
(§3) A single colony of Escherichia coli grown on a Luria-Bertani (LB) agar plate is resuspended and cultured in LB medium overnight (O/N) in aerobic conditions (37° C. with 220 rpm shaking in the New Brunswick Innova 4330 Shaker incubator). An aliquot of 100 μl such overnight Escherichia coli culture is diluted 1:50 in 5 ml Mueller-Hintom broth (MHB) and is incubated in aerobic conditions during 1 hour 30 minutes (OD=0.08-0.1) to reach the exponential phase of their growth curve. An inoculum of the exponentially growing Escherichia coli, corresponding to around 1×10^6 c.f.u./ml is then incubated in presence or absence of different concentrations of Triafluocyl in 2% DMSO with or without OAK for 24 hr in aerobic conditions (37° C. with 220 rpm shaking in the New Brunswick Innova 4330 Shaker incubator). Growth of Escherichia coli in each condition depicted in FIG. 13A is evaluated by reading the Optical Density of each culture at 600 nm (OD600) in a spectrophotometer (Victor-3, Perkin Elmer).
as §2, with “Fluometacyl (prepared according to WO 99/05143)” for “Triafluocyl (purchased from Cayman Chemical, Item No. 15425)”
as §3, with “An inoculum of the exponentially growing Escherichia coli, corresponding to around 1×10^6 c.f.u./ml is then incubated in presence or absence of different concentrations of Triafluocyl in 2% DMSO with or without OAK for 24 hr in aerobic conditions (37° C. with 220 rpm shaking in the New Brunswick Innova 4330 Shaker incubator).” left out, “14A” for “13A”

MIC [2] [µg/mL]	Structure (SMILES)	S. aureus biofilm formation ([1]; 10 μg/ml, polystyrene surface)	S. aureus biofilm formation ([1]; all concentrations tested, versus DMSO)	inhibition of Escherichia coli growth [2]	S. aureus biofilm formation ([1]; 38 μM, FIG. 10A)
5	CCCSc1nc(N[C@@H]2C[C@H]2c2ccc(F)c(F)c2)c2nnn([C@@H]3C[C@H](OCCO)[C@@H](O)[C@H]3O)c2n1 [Triafluocyl, (1S,2S,3R,5S)-3-[7-[(1R,2S)-2-(3,4-difluorophenyl)cyclopropylamino]-5-(propylthio)-3H-[1,2,3]-triazolo[4,5-d]pyrimidin-3-yl]-5-(2-hydroxyethoxy)-1,2-cyclopentanediol]	no biofilm could form	significantly reduces	unable to inhibit Escherichia coli growth	–
5	CCCSc1nc(N[C@@H]2C[C@H]2c2ccc(F)c(F)c2)c2nnn([C@@H]3C[C@H](O)[C@@H](O)[C@H]3O)c2n1 [Fluometacyl, (1S,2R,3S,4R)-4-[7-[[(1R,2S)-2-(3,4-Difluorophenyl)cyclopropyl]amino]-5-(propylthio)-3H-1,2,3-triazolo[4,5-d]pyrimidin-3-yl]-1,2,3-cyclopentanetriol]	–	–	unable to inhibit E. coli growth	could not form any biofilm

From patent publication US10905691B2, “Use of triazolo(4,5-d)pyrimidine derivatives for prevention and treatment of bacterial infection” (Universite de Liege, priority 2016, dated 2021)
